Experimental data taken from US4966891A, “Fluorocytidine derivatives” (priority 1987, dated 1990).

Experiments:
Lewis lung carcinoma = settings: mouse, in vivo, po
Method: Mice were inoculated subcutaneously with Lewis lung carcinoma (10^6 cells) on day 0.
The compounds were administered daily for 14 times from day 1 by the p.o. route. The effective dose (ED50) at which tumor growth was inhibited by 50%, and toxic doses were determined.

UV 2237 fibrosarcoma = test: Comparative antitumor testing against UV 2237 fibrosarcoma; type: in vivo, murine / mice; settings: p.o. daily × 7, Day 14
From the text: (§1) Mice were inoculated subcutaneously with Sarcoma 180, Meth A fibrosarcoma and UV 2237 fibrosarcoma, respectively at Day 0. The mice were then orally administered with the compounds daily for 7 times from Day 1. The efficacy
(§2) was expressed as therapeutic indices (EDmax /ED50) measured at Day 14 after the tumor inoculation, where EDmax is a dose showing maximum inhibition of tumor growth.

Meth A fibrosarcoma [1] = test: Antitumor testing against Meth A fibrosarcoma (oral, s.c. implanted); type: in vivo, mice; settings: Mus musculus, read-out: Inhibition of tumor growth; for inhibition in vivo at 1500 µmol/kg: 1.5 mmole/kg/day × 7, p.o.; for inhibition in vivo at 3000 µmol/kg: 3.0 mmole/kg/day × 7, p.o.
Method: (§3) Sarcoma 180 cells (2×10^6 cells) were implanted subcutaneously into mice (20-22 g) on day 0. The compounds of the present invention were administered daily from day 1 through 7 orally. The animals were sacrificed on day 14 and tumors were excised and weighed. The percent inhibition of tumor growth given in Table 1 below was calculated from the formula:
(§4) T=weight of the tumors from the treated group, C=weight of the tumors from the control group.
(§5) Meth A fibrosarcoma cells (2×10^5 cells) were implanted subcutaneously into mice (21-22 g). The testing against Meth A fibrosarcoma and the calculation of the percent inhibition of tumor growth were effected according to a manner analogous to that of the testing against Sarcoma 180.

Sarcoma 180 [2] = test: Comparative antitumor testing against Sarcoma 180; type: in vivo, murine / mice; settings: p.o. daily × 7, Day 14
From the text: as §1, §2

Meth A fibrosarcoma [3] = test: Comparative antitumor testing against Meth A fibrosarcoma; type: in vivo, murine / mice; settings: p.o. daily × 7, Day 14
From the text: as §1, §2

Sarcoma 180 [4] = test: Antitumor testing against Sarcoma 180 (oral, s.c. implanted); type: in vivo, mice; settings: Mus musculus, 336 h, day 14, read-out: Inhibition of tumor growth; for inhibition in vivo at 1100 µmol/kg: 1.1 mmole/kg/day × 7, p.o.; for inhibition in vivo at 2200 µmol/kg: 2.2 mmole/kg/day × 7, p.o.; for inhibition in vivo at 1500 µmol/kg: 1.5 mmole/kg/day × 7, p.o.
Method: as §3, §4

in vivo = settings: mouse, po
Meth A fibrosarcoma [5] = test: Comparative study on antitumor activity against Meth A fibrosarcoma with 5'-deoxy-5-fluorouridine; type: in vivo, mice
Method: as §5
(§6) The comparative study on antitumor activity of a representative compound (Example 3) of the present invention with 5'-deoxy-5-fluorouridine was performed according to a manner analogous to that of the antitumor testing against Meth A fibrosarcoma.

[6] = Fecal observation on Day 8 and toxicity in the comparative Meth A study; settings: for diarrhea: mouse, in vivo
Method: as §6

[7] = words, general knowledge; cited from earlier work

With `CCCC(=O)Nc1nc(=O)n([C@@H]2O[C@H](C)[C@@H](O)[C@H]2O)cc1F` [Example 1, N^4-butyryl-5'-deoxy-5-fluorocytidine] the “Therapeutic index (toxic dose/ED50): 50% Thymus Shrinkage (C)” value (Lewis lung carcinoma) was 11.3, the “Therapeutic index (toxic dose/ED50): 50% reduction No. of bone marrow cells (D)” value (Lewis lung carcinoma) was 10.7 and the “Therapeutic index (toxic dose/ED50): Max. Dose causing no diarrhea (A)” value (Lewis lung carcinoma) was greater than 13. The “Therapeutic index (EDmax/ED50), UV 2237” value (UV 2237 fibrosarcoma) was 4.8, the inhibition in vivo at 1500 µmol/kg (Meth A fibrosarcoma [1]) was 50% and the inhibition in vivo at 3000 µmol/kg (Meth A fibrosarcoma [1]) was 72%. The “Therapeutic index (EDmax/ED50), S180” value (Sarcoma 180 [2]) was 2.3, the “Therapeutic index (EDmax/ED50), Meth A” value (Meth A fibrosarcoma [3]) was 2.0 and the inhibition in vivo at 1100 µmol/kg (Sarcoma 180 [4]) was 56%. It also gave an inhibition in vivo at 2200 µmol/kg (Sarcoma 180 [4]) of 83% and an LD50 (in vivo) greater than 2000 mg/kg.
In the case of `C[C@H]1O[C@@H](n2cc(F)c(N)nc2=O)[C@H](O)[C@@H]1O` [5'-deoxy-5-fluorocytidine], the “Therapeutic index (EDmax/ED50), UV 2237” value (UV 2237 fibrosarcoma) is reported as 1.0, the “Therapeutic index (EDmax/ED50), S180” value (Sarcoma 180 [2]) is reported as 2.0 and the “Therapeutic index (EDmax/ED50), Meth A” value (Meth A fibrosarcoma [3]) is reported as 1.2.
Compound `CCCCC(=O)Nc1nc(=O)n([C@@H]2O[C@H](C)[C@@H](O)[C@H]2O)cc1F` [Example 46, 5'-deoxy-5-fluoro-N^4-valerylcytidine] has an inhibition in vivo at 1500 µmol/kg (Meth A fibrosarcoma [1]) of 51%, an inhibition in vivo at 3000 µmol/kg (Meth A fibrosarcoma [1]) of 66% and an LD50 (in vivo) greater than 2000 mg/kg.
In the case of `CC(C)CC(=O)Nc1nc(=O)n([C@@H]2O[C@H](C)[C@@H](O)[C@H]2O)cc1F` [Example 47, 5'-deoxy-5-fluoro-N^4-isovalerylcytidine], the inhibition in vivo at 1500 µmol/kg (Meth A fibrosarcoma [1]) is reported as 29%, the inhibition in vivo at 3000 µmol/kg (Meth A fibrosarcoma [1]) is reported as 59% and the LD50 (in vivo) is reported as greater than 2000 mg/kg.
For `COc1cc(C(=O)Nc2nc(=O)n([C@@H]3O[C@H](C)[C@@H](O)[C@H]3O)cc2F)cc(OC)c1OC` [Example 3, 5'-deoxy-5-fluoro-N^4-(3,4,5-trimethoxybenzoyl)cytidine], the “Inhibition of tumor growth” value (Meth A fibrosarcoma [5]; 0.4 mmole/kg/day × 7) was -27%, the “Inhibition of tumor growth” value (Meth A fibrosarcoma [5]; 0.8 mmole/kg/day × 7) was 20% and the “Inhibition of tumor growth” value (Meth A fibrosarcoma [5]; 1.5 mmole/kg/day × 7) was 86%. For the same compound, the “Inhibition of tumor growth” value (Meth A fibrosarcoma [5]; 3.0 mmole/kg/day × 7) was 79%, the “antitumor activity compared with 5'-deoxy-5-fluorouridine” value (Meth A fibrosarcoma [5]; words) was “more potent in the antitumor activity” and the inhibition in vivo at 1500 µmol/kg (Meth A fibrosarcoma [1]) was 86%. The inhibition in vivo at 3000 µmol/kg (Meth A fibrosarcoma [1]) was 79%, the diarrhea [6] was “did not cause diarrhea” and the “toxicity compared with 5'-deoxy-5-fluorouridine” value ([6]; words) was “less toxic than 5'-deoxy-5-fluorouridine”.
With `C[C@H]1O[C@@H](n2cc(F)c(=O)[nH]c2=O)[C@H](O)[C@@H]1O` [5'-deoxy-5-fluorouridine, reference compound] the “Therapeutic index (toxic dose/ED50): 50% Thymus Shrinkage (C)” value (Lewis lung carcinoma) was 5-10, the “Therapeutic index (toxic dose/ED50): 50% reduction No. of bone marrow cells (D)” value (Lewis lung carcinoma) was 5-10 and the “Therapeutic index (toxic dose/ED50): Max. Dose causing no diarrhea (A)” value (Lewis lung carcinoma) was 5. The “Therapeutic index (EDmax/ED50), UV 2237” value (UV 2237 fibrosarcoma) was 1.6, the “Inhibition of tumor growth” value (Meth A fibrosarcoma [5]; 0.4 mmole/kg/day × 7) was 34% and the “Inhibition of tumor growth” value (Meth A fibrosarcoma [5]; 0.8 mmole/kg/day × 7) was 31%. For the same compound, the “Inhibition of tumor growth” value (Meth A fibrosarcoma [5]; 1.5 mmole/kg/day × 7) was 66%, the “Inhibition of tumor growth” value (Meth A fibrosarcoma [5]; 3.0 mmole/kg/day × 7) was “toxic” and the “Therapeutic index (EDmax/ED50), S180” value (Sarcoma 180 [2]) was 2.4. For the same compound, the “Therapeutic index (EDmax/ED50), Meth A” value (Meth A fibrosarcoma [3]) was 1.1 and the diarrhea [6] was “diarrhea, which is the dose limiting factor”.
`CCCCCCCC(=O)Nc1nc(=O)n([C@@H]2O[C@H](C)[C@@H](O)[C@H]2O)cc1F` [Example 5, 5'-deoxy-5-fluoro-N^4-octanoylcytidine] showed an inhibition in vivo at 1100 µmol/kg (Sarcoma 180 [4]) of 62%, an inhibition in vivo at 2200 µmol/kg (Sarcoma 180 [4]) of 82% and an LD50 (in vivo) greater than 2000 mg/kg.
With `C[C@H]1O[C@@H](n2cc(F)c(NC(=O)c3cccnc3)nc2=O)[C@H](O)[C@@H]1O` [Example 34] the inhibition in vivo at 1300 µmol/kg (Meth A fibrosarcoma [1]; 1.3 mmole/kg/day × 7, p.o.) was 75%, the inhibition in vivo at 2600 µmol/kg (Meth A fibrosarcoma [1]; 2.6 mmole/kg/day × 7, p.o.) was 92% and the LD50 (in vivo) was greater than 2000 mg/kg.
In the case of `CC(C)C(=O)Nc1nc(=O)n([C@@H]2O[C@H](C)[C@@H](O)[C@H]2O)cc1F` [Example 9, 5'-deoxy-5-fluoro-N^4-isobutyrylcytidine], the inhibition in vivo at 1400 µmol/kg (Sarcoma 180 [4]; 1.4 mmole/kg/day × 7, p.o.) is reported as 76%, the inhibition in vivo at 2700 µmol/kg (Sarcoma 180 [4]; 2.7 mmole/kg/day × 7, p.o.) is reported as 96% and the LD50 (in vivo) is reported as greater than 2000 mg/kg.
Compound `COc1ccc(C(=O)Nc2nc(=O)n([C@@H]3O[C@H](C)[C@@H](O)[C@H]3O)cc2F)cc1` [Example 24] has an inhibition in vivo at 1500 µmol/kg (Sarcoma 180 [4]) of 63%, an inhibition in vivo at 3000 µmol/kg (Sarcoma 180 [4]; 3.0 mmole/kg/day × 7, p.o.) of 94% and an LD50 (in vivo) greater than 2000 mg/kg.
With `CCCCCCCCOC(=O)Nc1nc(=O)n([C@@H]2O[C@H](C)[C@@H](O)[C@H]2O)cc1F` [Example 41, 5'-deoxy-5-fluoro-N^4-(octyloxycarbonyl)cytidine] the inhibition in vivo at 500 µmol/kg (Sarcoma 180 [4]; 0.5 mmole/kg/day × 7, p.o.) was -18% and the inhibition in vivo at 1500 µmol/kg (Sarcoma 180 [4]) was 36%.
For `O=c1[nH]cc(F)c(=O)[nH]1` [5-fluorouracil], the “major and dose limiting toxicities” value [7] is given as “cause intestinal toxicities and immunosuppressive toxicities”.
